Laboratory results taken from patent publication US12351574B2, “Selective ligands for modulation of GIRK channels” (Northeastern University, priority 2018, dated 2025).

Target: T1, GIRK heteromers (UniProt P48542+P48549)
T1 construct: expressed in transfected cells; HEK293-T in the methods
T1 sequence (P48549 1-501): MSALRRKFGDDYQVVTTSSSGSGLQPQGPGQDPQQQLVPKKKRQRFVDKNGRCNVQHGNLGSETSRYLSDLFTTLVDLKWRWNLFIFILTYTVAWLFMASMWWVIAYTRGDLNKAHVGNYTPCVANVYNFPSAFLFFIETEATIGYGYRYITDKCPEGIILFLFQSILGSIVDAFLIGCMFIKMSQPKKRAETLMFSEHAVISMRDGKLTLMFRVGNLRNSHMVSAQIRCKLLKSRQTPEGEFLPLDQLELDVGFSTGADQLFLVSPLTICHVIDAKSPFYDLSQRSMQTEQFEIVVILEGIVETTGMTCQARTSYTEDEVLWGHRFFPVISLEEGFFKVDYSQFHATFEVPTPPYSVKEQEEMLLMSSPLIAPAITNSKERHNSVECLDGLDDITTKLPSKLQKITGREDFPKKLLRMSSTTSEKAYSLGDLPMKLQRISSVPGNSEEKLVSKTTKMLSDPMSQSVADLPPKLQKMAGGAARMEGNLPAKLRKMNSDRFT
T1 sequence (P48542 1-425): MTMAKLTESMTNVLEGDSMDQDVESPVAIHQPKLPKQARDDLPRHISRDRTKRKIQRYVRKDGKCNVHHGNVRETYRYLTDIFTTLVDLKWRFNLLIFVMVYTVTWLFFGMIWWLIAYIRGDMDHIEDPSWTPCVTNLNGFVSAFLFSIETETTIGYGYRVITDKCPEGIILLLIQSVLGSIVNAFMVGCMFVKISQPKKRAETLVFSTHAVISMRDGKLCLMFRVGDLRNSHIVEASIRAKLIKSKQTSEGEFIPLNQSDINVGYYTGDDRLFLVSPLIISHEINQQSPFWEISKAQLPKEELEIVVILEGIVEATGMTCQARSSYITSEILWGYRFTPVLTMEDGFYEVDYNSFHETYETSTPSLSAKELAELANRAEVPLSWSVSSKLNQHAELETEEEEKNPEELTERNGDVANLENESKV
Experiment: concentration-response after PIP2 hydrolysis by light-sensitive phosphatase, whole-cell patch-clamp in mammalian cells
Format: cell-based
Settings: stimulation of light-sensitive phosphatase, FIGS. 20A-20C
Text: The MD simulations indicated a PIP2-dependent activation effect by ML297 and the GAT compounds in GIRK heteromers leading to channel gating. To experimentally test the role of PIP2 in channel activation by ML297 and the GAT compounds, the inventors proceeded to first manipulate PIP2 levels by inducing a light-sensitive phosphatase in whole-cell patch-clamp experiments in mammalian cells and to examine the effects of the activating compounds (FIGS. 20A-20C).
Light-activated phosphatase system: The inventors used a light-activated phosphatase system to dephosphorylate PIP2 that is comprised of two fusion proteins: CRY2-5-ptaseOCRL contains the photolyase domain of cryptochrome 2 (CRY2) and the inositol 5-phosphatase domain of the […] oculocerebrorenal syndrome protein (OCRL), while CIBN-CAAX contains the CRY2 binding domain (CIBN) and a C-terminal CAAX box for plasma membrane targeting. When CRY2-5-ptaseOCRL and CIBN-CAAX fusion proteins are co-expressed and exposed to blue light between 458-488 nm, the 5-ptase is localized to the plasma membrane, where it dephosphorylates PIP2. […] The 5-ptaseOCRL system was activated using a 460 nm LED (Luminus) that was focused on the cells through the objective lens of an inverted microscope (Nikon).
Patch-clamp recording: Whole-cell currents were recorded with an Axopatch 200B amplifier (Molecular Devices) controlled via a USB-interface (National Instruments) using WinWCP software (University of Strathclyde). Currents were acquired through a lowpass Bessel filter at 2 kHz and were digitized at 10 kHz. […] Cells for study were selected based on GFP expression using an epifluorescence microscope (Nikon). […] The barium-sensitive component of the current, observed when cells were perfused with the high-K^+ buffer, was analyzed and was determined by perfusing 5 mM BaCl2 in the high-K^+ buffer at the end of each experiment. […]

Cc1cc(NC(=O)Nc2ccc(Br)s2)n(-c2ccccc2)n1 [GAT1508, 1-(5-bromothiophen-2-yl)-3-(3-methyl-1-phenyl-1H-pyrazol-5-yl)urea]
decrease in potency following hydrolysis of PIP2: ~2 fold

Cc1cc(NC(=O)Nc2ccc(C)s2)n(-c2ccccc2)n1 [GAT1521, 1-(3-methyl-1-phenyl-1H-pyrazol-5-yl)-3-(5-methylthiophen-2-yl)urea]
decrease in potency following hydrolysis of PIP2: ~3.7 fold

Cc1cc(NC(=O)Nc2ccc(F)c(F)c2)n(-c2ccccc2)n1 [ML297, reference compound]
decrease in potency following hydrolysis of PIP2: ~3 fold
